This is an account of results in US8524705B2, “2-oxo-2-(2-phenyl-5,6,7,8-tetrahydro-indolizin-3-yl)-acetamide derivatives and related compounds as antifungal agents” (F2G Limited British Body Corporate, priority 2007, dated 2013).

SMILES strings stand for the structures. Converted amounts (≈) assume the structure as drawn. Some results are limits rather than exact numbers.

What all share (format): cell-based
Common to all, as to settings: banded into grades

For one experiment, the system named is Aspergillus niger. Kind of experiment: Measurement of Minimum Inhibitory Concentrations (MICs), A. niger. The procedure, abridged:
(§1)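 Broth microdilution in YAG medium with spores at 1–2×10^4 cfu/mL, drug range 50–0.05 mg/L (retested at 0.5–0.0005 mg/L where needed), 24 h at 35 °C. OD485 read; MIC is lowest concentration giving >70% growth inhibition versus drug-free control, in mg/L. Also assessed in RPMI with 2% glucose, 0.135M MOPS.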

The test system of experiment [1] is Aspergillus fumigatus AF293. Kind of experiment: Measurement of Minimum Inhibitory Concentrations (MICs), A. fumigatus. The essentials: as §1
The next experiment deals with Aspergillus terreus AT49. As to the kind of experiment: Measurement of Minimum Inhibitory Concentrations (MICs), A. terreus 49. The procedure, abridged: as §1
Another experiment has as its system Aspergillus terreus AT4. Kind of experiment: Measurement of Minimum Inhibitory Concentrations (MICs), A. terreus. The essentials: as §1
The test system of experiment [2] is Aspergillus fumigatus AF210. As to the kind of experiment: Measurement of Minimum Inhibitory Concentrations (MICs), A. fumigatus 210. The procedure, abridged: as §1
For a further experiment, the system named is Aspergillus flavus. As to the kind of experiment: Measurement of Minimum Inhibitory Concentrations (MICs), A. flavus. The procedure, abridged:
as §1

Setting [3] is: RPMI medium containing 2% glucose, 0.135M MOPS buffer.
Where [4] appears, read: YAG medium, 24 hrs at 35° C., >70% growth inhibition.

For `Cc1cc(C)nc(N2CCN(c3ccc(NC(=O)C(=O)c4c(-c5ccccc5)cc5n4CCCC5)cc3O)CC2)c1` [Example 31, N-{4-[4-(4,6-Dimethyl-pyridin-2-yl)-piperazin-1-yl]-3-hydroxy-phenyl}-2-oxo-2-(2-phenyl-5,6,7,8-tetrahydro-indolizin-3-yl)-acetamide], the MIC (against Aspergillus niger (setting [3]); in the experiment with Aspergillus niger (setting [4]); in experiment [1] (setting [3]); in experiment [1] (setting [4]); in the experiment on Aspergillus terreus AT49 (setting [3]); in the experiment on Aspergillus terreus AT49 (setting [4])) was under 1 µg/mL each time. In addition, the MIC (in the experiment on Aspergillus terreus AT4 (setting [3]); in the experiment on Aspergillus terreus AT4 (setting [4]); in experiment [2] (setting [3]); in experiment [2] (setting [4]); with Aspergillus flavus (setting [3]); in the experiment on Aspergillus flavus (setting [4])) was under 1 µg/mL throughout.

As for `O=C(Nc1ccc2c(c1)OCC2)C(=O)c1c(-c2ccccc2)cc2n1CCCC2` [Example 32, N-(2,3-Dihydro-benzofuran-6-yl)-2-oxo-2-(2-phenyl-5,6,7,8-tetrahydro-indolizin-3-yl)-acetamide], the MIC (commonly the lowest concentration found to suppress growth) in the experiment with Aspergillus niger (setting [3]) is under 1 µg/mL; in the experiment with Aspergillus niger (setting [4]) it was under 1 µg/mL; in experiment [1] (setting [3]), 1 to 10 µg/mL (≈ 2.59 to 25.9 µM); in experiment [1] (setting [4]), under 1 µg/mL; against Aspergillus terreus AT49 (setting [3]), under 1 µg/mL; against Aspergillus terreus AT49 (setting [4]), under 1 µg/mL. The MIC in the experiment on Aspergillus terreus AT4 (setting [3]) was under 1 µg/mL; against Aspergillus terreus AT4 (setting [4]) it was under 1 µg/mL; in experiment [2] (setting [3]), 1 to 10 µg/mL (≈ 2.59 to 25.9 µM); in experiment [2] (setting [4]), under 1 µg/mL; against Aspergillus flavus (setting [3]), 1 to 10 µg/mL (≈ 2.59 to 25.9 µM); against Aspergillus flavus (setting [4]), under 1 µg/mL.
